The NIST ThermoML archive (doi:10.1016/j.jct.2010.06.011)

Assay: xn = mol fraction of the nth substance listed
Conditions: Liquid, Vibrating tube method

COC(=O)OC [dimethyl carbonate] + CCCCCC
mass density [kg/m3]
Conditions	100 kPa	5000 kPa	10000 kPa	20000 kPa	30000 kPa	40000 kPa
303.15 K, x1 = 0.1	–	–	–	695.6	704.3	712.2
303.15 K, x1 = 0.2	–	–	–	723.3	732.2	740.2
303.15 K, x1 = 0.3	–	–	–	753.7	762.7	770.9
303.15 K, x1 = 0.4	–	–	–	787.2	796.3	804.6
303.15 K, x1 = 0.5	–	–	–	824.1	833.3	841.6
303.15 K, x1 = 0.6	–	–	–	865	874.1	882.3
303.15 K, x1 = 0.7	–	–	–	909.8	918.7	926.9
303.15 K, x1 = 0.8	–	–	–	959.7	968.5	976.5
303.15 K, x1 = 0.9	–	–	–	1015.1	1023.6	1031.4
303.15 K, x1 = 0.95	–	–	–	1044.2	1052.6	1060.2
303.15 K, x1 = 1	–	–	–	1074.7	1082.9	1090.4
308.15 K, x1 = 0.1	669.8	675.7	681.4	691.5	700.6	708.6
308.15 K, x1 = 0.2	696.9	703	708.7	719	728.3	736.4
308.15 K, x1 = 0.3	727	733.1	738.8	749.3	758.7	766.9
308.15 K, x1 = 0.4	760.2	766.3	772	782.6	792.1	800.4
308.15 K, x1 = 0.5	796.9	802.9	808.7	819.2	828.8	837.2
308.15 K, x1 = 0.6	837.4	843.8	849.5	859.9	869.4	877.7
308.15 K, x1 = 0.7	882.5	888.6	894.2	904.4	913.8	922.1
308.15 K, x1 = 0.8	932.8	938.7	944.1	954.1	963.2	971.5
308.15 K, x1 = 0.9	989.2	994.6	999.7	1009.3	1018.1	1026.1
308.15 K, x1 = 0.95	1018.8	1023.8	1028.8	1038.1	1046.8	1054.7
308.15 K, x1 = 1	1049.8	1054.6	1059.4	1068.5	1077	1084.8
313.15 K, x1 = 0.1	664.8	671.1	677	687.5	696.7	705
313.15 K, x1 = 0.2	691.7	698	704.1	714.7	724.2	732.6
313.15 K, x1 = 0.3	721.5	727.8	733.9	744.7	754.3	762.9
313.15 K, x1 = 0.4	754.5	760.9	767	777.9	787.5	796.3
313.15 K, x1 = 0.5	791	797.4	803.4	814.3	824	832.8
313.15 K, x1 = 0.6	831.4	837.6	843.7	854.5	864.1	872.9
313.15 K, x1 = 0.7	876.3	882.4	888.3	898.9	908.5	917.2
313.15 K, x1 = 0.8	926.4	932.2	937.9	948.2	957.6	966.1
313.15 K, x1 = 0.9	982.5	988	993.4	1003.2	1012.2	1020.6
313.15 K, x1 = 0.95	1012.1	1017.4	1022.5	1032.1	1041	1049.1
313.15 K, x1 = 1	1043	1048.1	1053	1062.3	1071	1079
